Experimental data: the NIST ThermoML archive (doi:10.1016/j.jct.2012.08.021)

Assay: xn = mol fraction of the nth substance listed
Conditions: 101 kPa, Liquid, Vibrating tube method

NCCO [2-aminoethan-1-ol] + C[S+](C)[O-]
Conditions | mass density [kg/m3]
293.15 K, x1 = 0.1002 | 1092.35
293.15 K, x1 = 0.2 | 1084.23
293.15 K, x1 = 0.2999 | 1076.52
293.15 K, x1 = 0.4002 | 1068.58
293.15 K, x1 = 0.5002 | 1060.65
293.15 K, x1 = 0.5999 | 1052.61
293.15 K, x1 = 0.7002 | 1044.32
293.15 K, x1 = 0.8001 | 1035.24
293.15 K, x1 = 0.8998 | 1026.1
293.16 K, x1 = 1 | 1016.34
303.14 K, x1 = 0.2999 | 1066.93
303.14 K, x1 = 1 | 1008.4
303.15 K, x1 = 0.1002 | 1082.48
303.15 K, x1 = 0.4002 | 1059.15
303.15 K, x1 = 0.5002 | 1051.41
303.15 K, x1 = 0.5999 | 1043.58
303.15 K, x1 = 0.7002 | 1035.51
303.15 K, x1 = 0.8001 | 1026.69
303.15 K, x1 = 0.8998 | 1017.83
303.16 K, x1 = 0.2 | 1074.46
313.14 K, x1 = 0.1002 | 1072.61
313.14 K, x1 = 0.2999 | 1057.33
313.14 K, x1 = 1 | 1000.41
313.15 K, x1 = 0.2 | 1064.73
313.15 K, x1 = 0.4002 | 1049.71
313.15 K, x1 = 0.5002 | 1042.15
313.15 K, x1 = 0.5999 | 1034.52
313.15 K, x1 = 0.7002 | 1026.7
313.15 K, x1 = 0.8001 | 1018.12
313.15 K, x1 = 0.8998 | 1009.56
323.14 K, x1 = 0.1002 | 1062.74
323.15 K, x1 = 0.2999 | 1047.72
323.15 K, x1 = 0.4002 | 1040.26
323.15 K, x1 = 0.5002 | 1032.85
323.15 K, x1 = 0.5999 | 1025.42
323.15 K, x1 = 0.7002 | 1017.83
323.15 K, x1 = 0.8001 | 1009.5
323.15 K, x1 = 0.8998 | 1001.23
323.15 K, x1 = 1 | 992.384
323.16 K, x1 = 0.2 | 1054.96
333.14 K, x1 = 0.2999 | 1038.11
333.14 K, x1 = 1 | 984.302
333.15 K, x1 = 0.1002 | 1052.86
333.15 K, x1 = 0.4002 | 1030.78
333.15 K, x1 = 0.5002 | 1023.56
333.15 K, x1 = 0.7002 | 1008.93
333.15 K, x1 = 0.8001 | 1000.84
333.15 K, x1 = 0.8998 | 992.847
333.16 K, x1 = 0.2 | 1045.22
333.16 K, x1 = 0.5999 | 1016.3
343.14 K, x1 = 1 | 976.141
343.15 K, x1 = 0.1002 | 1042.97
343.15 K, x1 = 0.2 | 1035.46
343.15 K, x1 = 0.2999 | 1028.47
343.15 K, x1 = 0.4002 | 1021.28
343.15 K, x1 = 0.5002 | 1014.22
343.15 K, x1 = 0.5999 | 1007.15
343.15 K, x1 = 0.7002 | 999.999
343.15 K, x1 = 0.8001 | 992.114
343.15 K, x1 = 0.8998 | 984.393
353.14 K, x1 = 0.1002 | 1033.05
353.14 K, x1 = 0.2999 | 1018.81
353.14 K, x1 = 0.4002 | 1011.75
353.14 K, x1 = 0.5002 | 1004.84
353.14 K, x1 = 0.7002 | 990.992
353.14 K, x1 = 0.8001 | 983.32
353.14 K, x1 = 0.8998 | 975.863
353.14 K, x1 = 1 | 967.893
353.15 K, x1 = 0.2 | 1025.66
353.15 K, x1 = 0.5999 | 997.944
363.14 K, x1 = 0.1002 | 1023.1
363.14 K, x1 = 0.2 | 1015.84
363.14 K, x1 = 0.5002 | 995.408
363.14 K, x1 = 0.5999 | 988.672
363.14 K, x1 = 0.7002 | 981.91
363.14 K, x1 = 0.8001 | 974.446
363.14 K, x1 = 0.8998 | 967.234
363.15 K, x1 = 0.2999 | 1009.1
363.15 K, x1 = 0.4002 | 1002.17
363.15 K, x1 = 1 | 959.536

OCCNCCO [diethanolamine] + C[S+](C)[O-]
Conditions | mass density [kg/m3]
293.14 K, x1 = 0.9002 | 1097.48
293.15 K, x1 = 0.1002 | 1098.86
293.15 K, x1 = 0.1999 | 1097.33
293.15 K, x1 = 0.2998 | 1096.58
293.15 K, x1 = 0.4001 | 1096.23
293.15 K, x1 = 0.5001 | 1096.24
293.15 K, x1 = 0.6 | 1096.29
293.15 K, x1 = 0.7002 | 1096.88
293.15 K, x1 = 0.8001 | 1097.24
293.15 K, x1 = 1 | 1097.61
303.14 K, x1 = 0.4001 | 1087.87
303.14 K, x1 = 0.9002 | 1090.69
303.15 K, x1 = 0.1002 | 1089.38
303.15 K, x1 = 0.1999 | 1088.26
303.15 K, x1 = 0.2998 | 1087.88
303.15 K, x1 = 0.5001 | 1088.23
303.15 K, x1 = 0.6 | 1088.59
303.15 K, x1 = 0.7002 | 1089.43
303.15 K, x1 = 0.8001 | 1090.11
303.15 K, x1 = 1 | 1091.17
313.14 K, x1 = 0.4001 | 1079.49
313.15 K, x1 = 0.1002 | 1079.89
313.15 K, x1 = 0.1999 | 1079.19
313.15 K, x1 = 0.2998 | 1079.18
313.15 K, x1 = 0.5001 | 1080.19
313.15 K, x1 = 0.6 | 1080.87
313.15 K, x1 = 0.7002 | 1081.97
313.15 K, x1 = 0.8001 | 1082.9
313.15 K, x1 = 0.9002 | 1083.77
313.15 K, x1 = 1 | 1084.6
323.14 K, x1 = 0.4001 | 1071.1
323.15 K, x1 = 0.1002 | 1070.39
323.15 K, x1 = 0.1999 | 1070.11
323.15 K, x1 = 0.2998 | 1070.46
323.15 K, x1 = 0.5001 | 1072.12
323.15 K, x1 = 0.6 | 1073.1
323.15 K, x1 = 0.7002 | 1074.48
323.15 K, x1 = 0.9002 | 1076.8
323.15 K, x1 = 1 | 1077.88
323.16 K, x1 = 0.8001 | 1075.68
333.14 K, x1 = 1 | 1071.11
333.15 K, x1 = 0.1002 | 1060.89
333.15 K, x1 = 0.1999 | 1061.01
333.15 K, x1 = 0.2998 | 1061.72
333.15 K, x1 = 0.4001 | 1062.67
333.15 K, x1 = 0.5001 | 1064.01
333.15 K, x1 = 0.6 | 1065.3
333.15 K, x1 = 0.7002 | 1066.94
333.15 K, x1 = 0.8001 | 1068.41
333.15 K, x1 = 0.9002 | 1069.78
343.14 K, x1 = 0.4001 | 1054.22
343.14 K, x1 = 0.9002 | 1062.69
343.14 K, x1 = 1 | 1064.25
343.15 K, x1 = 0.1002 | 1051.36
343.15 K, x1 = 0.1999 | 1051.9
343.15 K, x1 = 0.2998 | 1052.96
343.15 K, x1 = 0.5001 | 1055.86
343.15 K, x1 = 0.6 | 1057.43
343.15 K, x1 = 0.7002 | 1059.34
343.15 K, x1 = 0.8001 | 1061.08
353.14 K, x1 = 0.1999 | 1042.77
353.14 K, x1 = 0.5001 | 1047.65
353.14 K, x1 = 0.7002 | 1051.66
353.14 K, x1 = 0.9002 | 1055.5
353.14 K, x1 = 1 | 1057.31
353.15 K, x1 = 0.1002 | 1041.8
353.15 K, x1 = 0.2998 | 1044.16
353.15 K, x1 = 0.4001 | 1045.72
353.15 K, x1 = 0.6 | 1049.5
353.15 K, x1 = 0.8001 | 1053.64
363.14 K, x1 = 0.1002 | 1032.21
363.14 K, x1 = 0.1999 | 1033.59
363.14 K, x1 = 0.2998 | 1035.35
363.14 K, x1 = 0.6 | 1041.5
363.14 K, x1 = 0.7002 | 1043.89
363.14 K, x1 = 0.8001 | 1046.12
363.14 K, x1 = 0.9002 | 1048.21
363.15 K, x1 = 0.4001 | 1037.18
363.15 K, x1 = 0.5001 | 1039.38
363.15 K, x1 = 1 | 1050.24
